Results taken from patent US20160022760A1, “METHODS OF TREATING CELIAC DISEASE WITH LARAZOTIDE” (priority 2014, published 2016).
Where no end group is shown, it is not given here.

Legend:
[1] = test system: anti-tissue transglutaminase (anti-tTG IgA and IgG); details: each treatment group, MITT
Description: (§1) Blood was collected for determination of serum anti-tTG (IgA and IgG) and anti-DGP (IgA and IgG) at the timings specified in Table 2.
(§2) Anti-tTG (IgA and IgG) and anti-DGP (IgA and IgG), and change from baseline (Week 0) to Visit 4 (Week 4), End of Treatment Visit 6 (Week 12), and End of Study Visit 7 (Week 16) were summarized descriptively. Week 0 served as baseline.

[2] = test system: anti-deamidated gliadin peptide (anti-DGP IgA and IgG); details: MITT
Description: as §1, §2

celiac disease = details: cited from earlier work
[3] = Phase IIb study: vital signs, BMI and body weight; format: in vivo, human
Protocol: Body weight was measured and BMI was calculated based upon screening height and weight at the timings specified in Table 2.
The Investigator or designee obtained vital signs including temperature, blood pressure (sitting), and pulse at screening and all study visits.
For continuous variables, changes from baseline to each time point were summarized with the number of nonmissing values, mean, standard deviation, median, and minimum and maximum values. For categorical variables, subject counts and percentages were provided. Results of ECGs were classified as normal; abnormal, not clinically significant, and abnormal, clinically significant, as specified on the ECG page of the eCRF. Summaries were presented by treatment group.

GGVLVQPG (SEQ ID NO:1) [Larazotide acetate]
Average anti-tTG antibody titers (IgA) over the study, in words [1]: remained relatively unchanged
Average anti-tTG antibody titers (IgA) ([1]; throughout the study): < 10 units
Anti-DGP (IgA and IgG) antibody titers versus placebo, in words ([2]; any Larazotide acetate group): no clinically meaningful post baseline differences
Average anti-DGP antibody titers (IgA) over the study, in words ([2]; each treatment group): remained relatively unchanged
Safety profile in previous clinical studies, in words (celiac disease; 0.25 mg to 8 mg TID and up to 36 mg in a single dose): acceptable safety profile
Efficacy of lower doses in previous studies, in words (celiac disease; lower doses 0.25 mg and 1 mg versus 4 mg or 8 mg): more effective compared to placebo than higher doses of 4 mg or 8 mg
Mean change from baseline in BMI (range) ([3]; 0.5, 1 and 2 mg groups, Week 4, Week 8, end of treatment, end of follow-up, placebo −0.1 to −0.3): 0 to 0.2 kg/m^2
Mean change from baseline in body weight (range) ([3]; 0.5, 1 and 2 mg groups, placebo −0.2 to −0.8): -0.1 to 0.5 kg
Mean changes from baseline in vital sign variables versus placebo, in words ([3]; systolic and diastolic blood pressure, pulse rate, body temperature): No clinically meaningful differences
